US7951802B2, “Use of 7-azaindoles in the inhibition of c-Jun N-terminal kinase” (Eisai R&D Management Co., Ltd., priority 2007, dated 2011)

Biological target: JNK3 (Homo sapiens, UniProt P53779)
Test: JNK3 SPA assay (phosphorylation of GST-c-Jun)
Assay type: biochemical
Details: 3.33 μM ATP, GST-c-Jun substrate, read-out: IC50 against JNK3
Description: JNK1, JNK2, JNK3—SPA Assay
JNK1, JNK2, JNK3—SPA Assay • 1. Compound is dissolved in DMSO to a convenient concentration and this is diluted in 10% DMSO to a five times concentrate of the desired starting concentration (frequently 1:100). • 2. 10 μl of 500 mM EDTA is added to alternative wells of the Opti-plate row, which will receive kinase reaction plus DMSO. This creates the negative control. • 3. For the JNK2 and JNK3 assay, compounds are prepared in six 2-fold dilutions with water and each concentration is tested in duplicate. For the JNK1 assay compounds are prepared in four 5-fold dilutions with water which are tested in triplicate. Controls are treated identically. • 4. 20 μl per well of each compound concentration is transferred to an Opti-plate, in duplicate. • 5. 30 μl (JNK2/3 SPA) or 50 μl (JNK1 SPA) of substrate solution (25 mM HEPES pH 7.5, 10 mM magnesium acetate with 3.33 μM ATP (JNK2/3) or 2 μM ATP (JNK1), approximately 7.5 kBq [γ-^33P] ATP, GST-c-Jun, in water) is added to each well. • 6. 50 μl (JNK2/3 SPA) or 30 μl (JNK1 SPA) of kinase solution (JNK in 25 mM HEPES pH 7.5, 10 mM Mg Acetate) is added to each well.
• 7. The plate is incubated for 30 minutes at room temperature. • 8. 100 μl of bead/stop solution is added to each well (5 mg/ml glutathione-PVT-SPA beads, 40 mM ATP in PBS). • 9. Plates are sealed and incubated for 30 minutes at room temperature, centrifuged for 10 minutes at 2500 g and counted. • 10. The IC50 values are calculated as the concentration of the compound being tested at which the phosphorylation of c-Jun is decreased to 50% of the control value.

Sequence of JNK3 (P53779 whole entry, species assumed): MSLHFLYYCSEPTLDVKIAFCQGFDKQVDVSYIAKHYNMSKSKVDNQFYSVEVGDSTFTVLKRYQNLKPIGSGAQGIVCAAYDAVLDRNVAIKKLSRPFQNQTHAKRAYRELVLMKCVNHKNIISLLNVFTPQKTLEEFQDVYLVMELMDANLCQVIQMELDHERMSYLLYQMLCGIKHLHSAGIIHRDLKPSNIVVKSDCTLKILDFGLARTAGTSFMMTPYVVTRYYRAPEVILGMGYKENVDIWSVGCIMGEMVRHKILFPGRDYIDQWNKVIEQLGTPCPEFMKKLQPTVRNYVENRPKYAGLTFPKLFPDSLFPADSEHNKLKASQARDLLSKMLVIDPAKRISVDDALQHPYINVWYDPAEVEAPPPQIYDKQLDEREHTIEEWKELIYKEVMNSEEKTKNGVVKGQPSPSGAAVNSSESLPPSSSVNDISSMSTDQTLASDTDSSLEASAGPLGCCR

Compound	IC50
O=C(c1nc(-c2c[nH]c3ncc([C@H]4CC[C@H](N5CCOCC5)CC4)cc23)cs1)N1CCCCC1 [Compound I-33, (4-(5-((1r,4r)-4-morpholinocyclohexyl)-1H-pyrrolo[2,3-b]pyridin-3-yl)thiazol-2-yl)(piperidin-1-yl)methanone]	198 nM
CN1CCCC1c1nc(-c2c[nH]c3ncc([C@H]4CC[C@@H](N5CCOCC5)CC4)cc23)cs1 (some centres unmarked) [Compound I-108, 4-((1s,4s)-4-(3-(2-(1-methylpyrrolidin-2-yl)thiazol-4-yl)-1H-pyrrolo[2,3-b]pyridin-5-yl)cyclohexyl)morpholine]	1230 nM
CN1CCC(c2csc(-c3c[nH]c4ncc([C@H]5CC[C@@H](N6CCOCC6)CC5)cc34)n2)CC1 [Compound I-79, 4-((1s,4s)-4-(3-(4-(1-methylpiperidin-4-yl)thiazol-2-yl)-1H-pyrrolo[2,3-b]pyridin-5-yl)cyclohexyl)morpholine]	309 nM
O=C(c1nc(-c2c[nH]c3ncc(C4=CCCC4)cc23)cs1)N1CCCCC1 [Compound I-4, [4-(5-Cyclopent-1-enyl-1H-pyrrolo[2,3-b]pyridin-3-yl)-thiazol-2-yl]-piperidin-1-yl-methanone]	251 nM
CN1CCC(c2nc(-c3c[nH]c4ncc([C@H]5CC[C@H](N6CCOCC6)CC5)cc34)cs2)CC1 [Compound I-94, 4-((1r,4r)-4-(3-(2-(1-methylpiperidin-4-yl)thiazol-4-yl)-1H-pyrrolo[2,3-b]pyridin-5-yl)cyclohexyl)morpholine]	692 nM
O=C(c1nc(-c2c[nH]c3ncc(C4CCC5(CC4)OCCO5)cc23)cs1)N1CCCCC1 [Compound I-25, {4-[5-(1,4-Dioxa-spiro[4.5]dec-8-yl)-1H-pyrrolo[2,3-b]pyridin-3-yl]-thiazol-2-yl}-piperidin-1-yl-methanone]	16 nM
Cc1nc(-c2c[nH]c3ncc([C@H]4CC[C@@H](N5CCN(C)CC5)CC4)cc23)cs1 [Compound I-92, 2-methyl-4-(5-((1s,4s)-4-(4-methylpiperazin-1-yl)cyclohexyl)-1H-pyrrolo[2,3-b]pyridin-3-yl)thiazole]	> 1000 nM
CC1(C)C=CC(c2cnc3[nH]cc(-c4csc(C(=O)N5CCOCC5)n4)c3c2)=CC1 [Compound I-16, {4-[5-(4,4-Dimethyl-cyclohexa-1,5-dienyl)-1H-pyrrolo[2,3-b]pyridin-3-yl]-thiazol-2-yl}-morpholin-4-yl-methanone]	395 nM
CC1CCC(c2cnc3[nH]cc(-c4csc(C(=O)N5CCN(C)CC5)n4)c3c2)CC1 (centres unmarked) [Compound I-22, {4-[5-(4-Methyl-cyclohexyl)-1H-pyrrolo[2,3-b]pyridin-3-yl]-thiazol-2-yl}-(4-methyl-piperazin-1-yl)-methanone]	16 nM
c1ncc(-c2c[nH]c3ncc([C@H]4CC[C@H](N5CCOCC5)CC4)cc23)s1 [Compound I-60, 4-((1r,4r)-4-(3-(thiazol-5-yl)-1H-pyrrolo[2,3-b]pyridin-5-yl)cyclohexyl)morpholine]	110 nM
c1sc(N2CCCC2)nc1-c1c[nH]c2ncc([C@H]3CC[C@H](N4CCCOCC4)CC3)cc12 [Compound I-122, 5-[trans-4-(1,4-oxazepan-4-yl)cyclohexyl]-3-(2-pyrrolidin-1-yl-1,3-thiazol-4-yl)-1H-pyrrolo[2,3-b]pyridine]	1290 nM
O=C(c1nc(-c2c[nH]c3ncc(C4=CCCC4)cc23)cs1)N1CCOCC1 [Compound I-3, [4-(5-Cyclopent-1-enyl-1H-pyrrolo[2,3-b]pyridin-3-yl)-thiazol-2-yl]-morpholin-4-yl-methanone]	38 nM
CC1CCC(c2cnc3[nH]cc(-c4csc(C(=O)N5CCOCC5)n4)c3c2)CC1 (centres unmarked) [Compound I-21, {4-[5-(4-Methyl-cyclohexyl)-1H-pyrrolo[2,3-b]pyridin-3-yl]-thiazol-2-yl}-morpholin-4-yl-methanone]	123 nM
CN1CCN(C(=O)c2nc(-c3c[nH]c4ncc([C@H]5CC[C@@H](N6CCOCC6)CC5)cc34)cs2)CC1 [Compound I-32, (4-methylpiperazin-1-yl)(4-(5-((1s,4s)-4-morpholinocyclohexyl)-1H-pyrrolo[2,3-b]pyridin-3-yl)thiazol-2-yl)methanone]	955 nM
c1csc(-c2c[nH]c3ncc([C@H]4CC[C@H](N5CCOCC5)CC4)cc23)n1 [Compound I-89, 4-((1r,4r)-4-(3-(thiazol-2-yl)-1H-pyrrolo[2,3-b]pyridin-5-yl)cyclohexyl)morpholine]	575 nM
CN1CCC(c2nc(-c3c[nH]c4ncc([C@H]5CC[C@H](N6CCN(C)CC6)CC5)cc34)cs2)CC1 [Compound I-96, 4-(5-((1r,4r)-4-(4-methylpiperazin-1-yl)cyclohexyl)-1H-pyrrolo[2,3-b]pyridin-3-yl)-2-(1-methylpiperidin-4-yl)thiazole]	229 nM
CN1CCCC1c1nc(-c2c[nH]c3ncc([C@H]4CC[C@H](N5CCCOCC5)CC4)cc23)cs1 (some centres unmarked) [Compound I-113, 4-((1r,4r)-4-(3-(2-(1-methylpyrrolidin-2-yl)thiazol-4-yl)-1H-pyrrolo[2,3-b]pyridin-5-yl)cyclohexyl)-1,4-oxazepane]	1230 nM
CN1CCC(c2nc(-c3c[nH]c4ncc([C@H]5CC[C@H](N6CCCOCC6)CC5)cc34)cs2)CC1 [Compound I-102, 4-((1r,4r)-4-(3-(2-(1-methylpiperidin-4-yl)thiazol-4-yl)-1H-pyrrolo[2,3-b]pyridin-5-yl)cyclohexyl)-1,4-oxazepane]	550 nM

Next, values leading:

IC50	Compound
> 2000 nM	c1nc(-c2c[nH]c3ncc([C@H]4CC[C@H](N5CCCOCC5)CC4)cc23)cs1 [Compound I-116, 4-((1r,4r)-4-(3-(thiazol-4-yl)-1H-pyrrolo[2,3-b]pyridin-5-yl)cyclohexyl)-1,4-oxazepane]
219 nM	c1ncc(-c2c[nH]c3ncc([C@H]4CC[C@H](N5CCCOCC5)CC4)cc23)s1 [Compound I-118, 4-((1r,4r)-4-(3-(thiazol-5-yl)-1H-pyrrolo[2,3-b]pyridin-5-yl)cyclohexyl)-1,4-oxazepane]
63 nM	CN1CCN(C(=O)c2nc(-c3c[nH]c4ncc(C5CCCCC5)cc34)cs2)CC1 [Compound I-10, [4-(5-Cyclohexyl-1H-pyrrolo[2,3-b]pyridin-3-yl)-thiazol-2-yl]-(4-methyl-piperazin-1-yl)-methanone]
891 nM	COc1nc(-c2c[nH]c3ncc(C4CCCCC4)cc23)cs1 [Compound I-50, 4-(5-cyclohexyl-1H-pyrrolo[2,3-b]pyridin-3-yl)-2-methoxythiazole]
324 nM	c1csc(-c2c[nH]c3ncc(C4CCCCC4)cc23)n1 [Compound I-26, 2-(5-cyclohexyl-1H-pyrrolo[2,3-b]pyridin-3-yl)thiazole]
89 nM	c1nc(-c2c[nH]c3ncc(C4CCCCC4)cc23)cs1 [Compound I-49, 4-(5-cyclohexyl-1H-pyrrolo[2,3-b]pyridin-3-yl)thiazole]
> 1000 nM	Cc1nc(-c2c[nH]c3ncc([C@H]4CC[C@H](N5CCCOCC5)CC4)cc23)cs1 [Compound I-75, 4-((1r,4r)-4-(3-(2-methylthiazol-4-yl)-1H-pyrrolo[2,3-b]pyridin-5-yl)cyclohexyl)-1,4-oxazepane]
1320 nM	c1csc(-c2c[nH]c3ncc([C@H]4CC[C@@H](N5CCOCC5)CC4)cc23)n1 [Compound I-90, 4-((1s,4s)-4-(3-(thiazol-2-yl)-1H-pyrrolo[2,3-b]pyridin-5-yl)cyclohexyl)morpholine]
